Experimental findings from publication PMC9895061 (Signal Transduction and Targeted Therapy, 2023) are described below.

A word on the melting point: it is the temperature, or range, at which the solid turns liquid. As usually defined, the IC50 is the midpoint of a concentration-inhibition curve.

One series concerns the target T1, PRDX1 (Homo sapiens, UniProt Q06830).
T1 sequence (Q06830 1-199): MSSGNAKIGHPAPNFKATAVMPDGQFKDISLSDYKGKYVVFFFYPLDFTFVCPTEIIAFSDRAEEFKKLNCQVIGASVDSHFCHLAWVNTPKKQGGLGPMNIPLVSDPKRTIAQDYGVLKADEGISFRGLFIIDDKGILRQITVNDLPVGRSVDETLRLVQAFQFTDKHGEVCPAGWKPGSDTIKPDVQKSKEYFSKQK
In words: Trx-TrxR-NADPH coupling peroxiredoxin activity assay, PRDX1. Type of series: biochemical. Particulars: recombinant PRDX1, 1.5 h incubation, mean ± SEM, triplicate; read-out: IC50 against the peroxidase activity of PRDX1.

The subject of a further series is recombinant PRDX1. In words: Click labeling assay. Type of series: binding, human. Particulars: recombinant PRDX1, streptavidin HRP blot; competed by Celastrol. The procedure: The click labeling method used in this paper refers to these researches.[49],[50] Alkynylated compounds were incubated with recombinant proteins for 1 h in buffer C (20 mM Hepes, […]). For some PRDX1 wild type samples, unalkynylated compounds were pre-incubated with proteins for 0.5 h before incubating with alkynylated compounds. The work concentration of proteins is 1 µM. After compounds incubation, the protein samples were subjected to click reaction procedures through terminal alkynyl group as previously described.[49],[50] Protein samples were resolved with SDS-PAGE and blotted with streptavidin HRP (1:10000, Thermo Scientific) and anti-PRDX1 antibody (8499, 1:1000, Cell Signaling Technology).

Molecule `C#CCCOC(=O)[C@@H](C)NC(=O)N[C@]1(C)CC[C@]2(C)CC[C@]3(C)C4=CC=C5C(=CC(=O)C(O)=C5C)[C@]4(C)CC[C@@]3(C)[C@@H]2C1` yielded a melting point of 123.4 to 127.8 °C.

`COC(=O)[C@H](Cc1ccccc1)NC(=O)N[C@]1(C)CC[C@]2(C)CC[C@]3(C)C4=CC=C5C(=CC(=O)C(O)=C5C)[C@]4(C)CC[C@@]3(C)[C@@H]2C1` [19-266, Methyl (((2R,4aS,6aS,12bR,14aS,14bR)-10-hydroxy-2,4a,6a,9,12b,14a-hexamethyl-11-oxo-1,2,3,4,4a,5,6,6a,11,12b,13,14,14a,14b-tetradecahydropicen-2-yl)carbamoyl)-L-phenylalaninate] displayed a melting point of 151.9 to 155.7 °C. In addition, the IC50 at PRDX1 is 280 ± 40 nM.

For the molecule `C#CCOCCOCCNC(=O)[C@]1(C)CC[C@]2(C)CC[C@]3(C)C4=CC=C5C(=CC(=O)C(O)=C5C)[C@]4(C)CC[C@@]3(C)[C@@H]2C1` [alkynylated Celastrol, (2R,4aS,6aS,12bR,14aS,14bR)-10-hydroxy-2,4a,6a,9,12b,14a-hexamethyl-11-oxo-N-(2-(2-(prop-2-yn-1-yloxy)ethoxy)ethyl)-1,2,3,4,4a,5,6,6a,11,12b,13,14,14a,14b-tetradecahydropicene-2-carboxamide], the melting point is 64.7 to 68 °C. Also, the “covalent binding to PRDX1 by click labeling (in words)” value with recombinant PRDX1 is given as “covalently bound to PRDX1”.
